Test results published in PMC12250347, “Calcium-dependent pathway as a primary cause of hypoxic RGC damage in monkey retinal explants” (PLOS One, 2025).

System: calpains 1 and 2 in monkey retinal lysate
Experiment: In vitro inhibitory assay of calpains from retinal lysate (CaCl2, immunoblotting)
Assay type: biochemical
Conditions: non-cultured monkey retina lysate, 10 mM CaCl2, 2 hr, 37°C; inhibitor at 1, 10 and 100 µM
Experimental: Each retinal explant was sonicated in RIPA Lysis and Extraction Buffer (Thermo Fisher Scientific), with protease inhibitors cocktail (Complete Mini-EDTA-free; MilliporeSigma). Protein concentrations in lysates were measured by BCA assay (Pierce BCA Protein Assay Kit, Thermo Fisher Scientific) using bovine serum albumin as a standard. For immunoblotting, 5 μg of each sample was loaded and run on 4% to 12% gradient or 10% SDS-PAGE gels (NuPAGE Bis-Tris Protein Gels, Thermo Fisher Scientific) with 2-(N-morpholino)ethanesulfonic acid buffer or 3-(N-morpholino) propanesulfonic acid buffer (Thermo Fisher Scientific). Proteins were then electrotransferred to a polyvinylidene fluoride membrane (MilliporeSigma) at 100 V for 60 min or 1.5 hr. Membranes were then blocked with 5% skim milk in Tris-buffer saline (Bio-Rad Laboratories, Hercules, CA, USA) containing 0.05% Tween 20. Each membrane was probed with primary antibodies against α-spectrin (1:2000 dilution, Enzo Life Sciences, Farmingdale, NY, USA), SBDP150 (1:1000 dilution, Senju Pharmaceutical), calpain 1 (1:1000 dilution, Thermo Fisher Scientific), calpain 2 (1:500, GeneTex, Irvine, CA, USA), cathepsin K (1:500 dilution, Abcam), and β-actin (1:1000 dilution, Merck). For calpain 1, immunoreactivity was visualized using a secondary antibody conjugated to alkaline phosphatase and the AP Conjugate Substrate Kit (Bio-Rad Laboratories). For other proteins, immunoreactivities were visualized using secondary antibodies conjugated with rabbit (Santa Cruz Biotechnology) or mouse horseradish peroxidase enzyme (Cytiva, Wilmington, DE, USA) and ECL Plus detection reagents (Cytiva). Images of the membranes were captured with FluorChem FC2 imager (Cell Biosciences, Santa Clara, CA, USA). The conversion of pro-cathepsin K (38 kDa) to its mature form (27 kDa) was used as an indicator of cathepsin K activation.
To confirm the isozyme specificities of calpain inhibitors in vitro, non-cultured monkey retinas were sonicated in a buffer containing 20 mM Tris (pH 7.5), 5 mM EGTA, 5 mM EDTA, 2 mM DTE. […]

## COCCOCCOC(=O)N[C@@H](CC(C)C)C(=O)N[C@@H](Cc1ccccc1)C(=O)C(=O)NC1CC1 [SNJ-1945]
  Effect on calcium-induced activation (autolysis) of calpains 1 and 2 and SBDP150 in retinal lysate: inhibited the activation of both calpain 1 and calpain 2 in a dose-dependent manner
